From PubChem BioAssay (NCI)
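Results reflect a 48-hour exposure of cells in 96-well plates to compound at five concentrations. TGI: concentration producing complete growth inhibition.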

Key:
Experiment in all cases: NCI tumour cell line growth inhibition, 48 h
DMS 114 small cell lung = tested on: DMS 114 small cell lung
M19-MEL melanoma = tested on: M19-MEL melanoma
SNB-78 CNS = tested on: SNB-78 CNS
LXFL 529 NSCLC = tested on: LXFL 529 NSCLC
KM20L2 colon = tested on: KM20L2 colon
P388/ADR leukemia = tested on: P388/ADR leukemia
P388 leukemia = tested on: P388 leukemia
SN12K1 renal = tested on: SN12K1 renal
RXF-631 renal = tested on: RXF-631 renal

For `OCCN1CCN2C=C(C3CCCC4N(CCO)CCN34)CCC21` (stereo unspecified), the TGI (DMS 114 small cell lung) was 72.5 µM, the TGI (M19-MEL melanoma) was > 100 µM and the TGI (SNB-78 CNS) was > 100 µM. The TGI (LXFL 529 NSCLC) was > 100 µM and the TGI (KM20L2 colon) was > 100 µM.

`CSc1nc2c(ncn2C2OCC(O)C(O)C2O)c(=O)n1C` (stereo unspecified) was tested, and the TGI (DMS 114 small cell lung) was > 100 µM, the TGI (M19-MEL melanoma) was > 100 µM and the TGI (P388/ADR leukemia) was > 100 µM. The TGI (SNB-78 CNS) was > 100 µM, the TGI (P388 leukemia) was > 100 µM and the TGI (KM20L2 colon) was > 100 µM. The TGI (SN12K1 renal) was > 100 µM.

Compound `CCN(CC)CCNc1ccc2nnn3c4ccc(O)cc4c(=O)c1c23` has a TGI (DMS 114 small cell lung) of 22.1 µM, a TGI (SNB-78 CNS) of 21.1 µM and a TGI (LXFL 529 NSCLC) of 20.3 µM. For the same compound, the TGI (KM20L2 colon) was 17.6 µM.

With `C=C[C@]1(C)CCC2=C(CCC3C2(C)CCC[C@@]3(C)COC(C)=O)C1` (stereo partly specified) the TGI (DMS 114 small cell lung) was 37.4 µM, the TGI (M19-MEL melanoma) was 50.8 µM and the TGI (SNB-78 CNS) was 36.4 µM. It also gave a TGI (LXFL 529 NSCLC) of 32.5 µM, a TGI (RXF-631 renal) of 38.1 µM and a TGI (KM20L2 colon) of 33.5 µM.

Work on `Cc1c2ccncc2c(C)c2c1[nH]c1ccc(OCC(F)(F)F)cc12` yielded a TGI (M19-MEL melanoma) of 3.49 µM, a TGI (SNB-78 CNS) of 5.47 µM and a TGI (LXFL 529 NSCLC) of 2.43 µM. For the same compound, the TGI (KM20L2 colon) was 2.78 µM.

For `CC(=O)OC1COC(N2C(=O)C(=O)c3cc(Br)ccc32)C(OC(C)=O)C1OC(C)=O` (stereo unspecified), the TGI (DMS 114 small cell lung) was > 100 µM, the TGI (M19-MEL melanoma) was > 100 µM and the TGI (SNB-78 CNS) was > 100 µM. The TGI (LXFL 529 NSCLC) was > 100 µM, the TGI (RXF-631 renal) was > 100 µM and the TGI (KM20L2 colon) was > 100 µM.

With `O=Cc1ccc(CCl)cc1` the TGI (DMS 114 small cell lung) was 23.5 µM, the TGI (M19-MEL melanoma) was 52.5 µM and the TGI (SNB-78 CNS) was 47.7 µM. It also gave a TGI (LXFL 529 NSCLC) of 31.4 µM, a TGI (RXF-631 renal) of 14.7 µM and a TGI (KM20L2 colon) of 61.8 µM.

With `CCCCCC/C=C1\CCC(CN2CCOCC2)C1=O` (stereo unspecified) the TGI (DMS 114 small cell lung) was 33.2 µM, the TGI (SNB-78 CNS) was 50.6 µM and the TGI (LXFL 529 NSCLC) was 11.1 µM. For the same compound, the TGI (KM20L2 colon) was 37 µM.

With `COc1cc(C2C(Cl)C(=O)N2NC(=O)c2ccc(N)cc2)cc(Br)c1O` (stereo unspecified) the TGI (DMS 114 small cell lung) was 21.8 µM, the TGI (M19-MEL melanoma) was 32 µM and the TGI (SNB-78 CNS) was 43.9 µM. It also gave a TGI (LXFL 529 NSCLC) of 11.3 µM and a TGI (KM20L2 colon) of 33.6 µM.

`Nc1cc(=O)n(-c2ccccc2)c(=S)n1-c1ccccc1` was tested, and the TGI (DMS 114 small cell lung) was > 100 µM, the TGI (M19-MEL melanoma) was > 100 µM and the TGI (SNB-78 CNS) was > 100 µM. For the same compound, the TGI (LXFL 529 NSCLC) was > 100 µM and the TGI (KM20L2 colon) was > 100 µM.

In the case of `O=C(Nc1cccc2c1[nH]c1c(-c3ccccc3)nccc12)c1ccccc1[N+](=O)[O-]`, the TGI (SNB-78 CNS) is reported as > 100 µM, the TGI (LXFL 529 NSCLC) is reported as > 100 µM and the TGI (RXF-631 renal) is reported as > 100 µM. The TGI (KM20L2 colon) was > 100 µM.

`CCN(CC)Cc1c(/C=C\c2cc(OC)c(OC)c(OC)c2)ccc(OC)c1O` was tested, and the TGI (DMS 114 small cell lung) was 5.68 µM, the TGI (M19-MEL melanoma) was > 100 µM and the TGI (SNB-78 CNS) was > 100 µM. The TGI (LXFL 529 NSCLC) was > 100 µM and the TGI (KM20L2 colon) was 11.9 µM.

In the case of `COC1(O)c2cccc(Cl)c2C(=O)N1C1(C(N)=O)CCCCC1` (stereo unspecified), the TGI (DMS 114 small cell lung) is reported as > 100 µM, the TGI (M19-MEL melanoma) is reported as > 100 µM and the TGI (P388/ADR leukemia) is reported as > 100 µM. The TGI (SNB-78 CNS) was > 100 µM, the TGI (P388 leukemia) was > 100 µM and the TGI (KM20L2 colon) was > 100 µM. The TGI (SN12K1 renal) was > 100 µM.

In the case of `Clc1ccc(-c2c(C3=NCCCN3)nnn2-c2ccccc2)cc1`, the TGI (DMS 114 small cell lung) is reported as > 100 µM, the TGI (M19-MEL melanoma) is reported as > 100 µM and the TGI (SNB-78 CNS) is reported as > 100 µM. The TGI (LXFL 529 NSCLC) was > 100 µM, the TGI (RXF-631 renal) was > 100 µM and the TGI (KM20L2 colon) was > 100 µM.

In the case of `O=C(O)C12CCCCC1CCCC2` (stereo unspecified), the TGI (DMS 114 small cell lung) is reported as > 100 µM, the TGI (M19-MEL melanoma) is reported as > 100 µM and the TGI (LXFL 529 NSCLC) is reported as > 100 µM. The TGI (KM20L2 colon) was > 100 µM.

For `Ic1cc2c(cc1C1SCCCS1)OCO2`, the TGI (DMS 114 small cell lung) was > 100 µM, the TGI (M19-MEL melanoma) was > 100 µM and the TGI (SNB-78 CNS) was > 100 µM. The TGI (LXFL 529 NSCLC) was > 100 µM, the TGI (RXF-631 renal) was > 100 µM and the TGI (KM20L2 colon) was > 100 µM.

`CC(=O)NC(Cc1ccsc1)C(=O)O` (stereo unspecified) was tested, and the TGI (DMS 114 small cell lung) was > 100 µM, the TGI (M19-MEL melanoma) was > 100 µM and the TGI (P388/ADR leukemia) was > 100 µM. The TGI (SNB-78 CNS) was > 100 µM, the TGI (P388 leukemia) was > 100 µM and the TGI (KM20L2 colon) was > 100 µM. The TGI (SN12K1 renal) was > 100 µM.
